Measured values from patent publication US7638532B2, “3-aryloxy-8-aza-bicyclo[3.2.1]oct-6-ene derivatives and their use as monoamine neurotransmitter re-uptake inhibitors” (NeuroSearch A/S, priority 2005, dated 2009).
Counter-ions that a name gives are not always drawn. Like-named read-outs stand apart in the source and are kept apart here.

How the values were obtained:
[1] = molecular target: T1, reuptake of dopamine (DA) in synaptosomes (Rattus norvegicus, UniProt P23977); assay: Inhibition of dopamine (DA) reuptake in synaptosomes; type: biochemical
T1 construct: in synaptosomes as described in WO 97/16451; from tissue

[2] = molecular target: T2, reuptake of noradrenaline (NA) in synaptosomes (Rattus norvegicus, UniProt Q9WTR4); assay: Inhibition of noradrenaline (NA) reuptake in synaptosomes; type: biochemical
T2 construct: in synaptosomes as described in WO 97/16451; from tissue

[3] = molecular target: T3, reuptake of serotonine (5-HT) in synaptosomes (Rattus norvegicus, UniProt P31652); assay: Inhibition of serotonine (5-HT) reuptake in synaptosomes; type: biochemical
T3 construct: in synaptosomes as described in WO 97/16451; from tissue
T3 sequence (P31652 whole entry): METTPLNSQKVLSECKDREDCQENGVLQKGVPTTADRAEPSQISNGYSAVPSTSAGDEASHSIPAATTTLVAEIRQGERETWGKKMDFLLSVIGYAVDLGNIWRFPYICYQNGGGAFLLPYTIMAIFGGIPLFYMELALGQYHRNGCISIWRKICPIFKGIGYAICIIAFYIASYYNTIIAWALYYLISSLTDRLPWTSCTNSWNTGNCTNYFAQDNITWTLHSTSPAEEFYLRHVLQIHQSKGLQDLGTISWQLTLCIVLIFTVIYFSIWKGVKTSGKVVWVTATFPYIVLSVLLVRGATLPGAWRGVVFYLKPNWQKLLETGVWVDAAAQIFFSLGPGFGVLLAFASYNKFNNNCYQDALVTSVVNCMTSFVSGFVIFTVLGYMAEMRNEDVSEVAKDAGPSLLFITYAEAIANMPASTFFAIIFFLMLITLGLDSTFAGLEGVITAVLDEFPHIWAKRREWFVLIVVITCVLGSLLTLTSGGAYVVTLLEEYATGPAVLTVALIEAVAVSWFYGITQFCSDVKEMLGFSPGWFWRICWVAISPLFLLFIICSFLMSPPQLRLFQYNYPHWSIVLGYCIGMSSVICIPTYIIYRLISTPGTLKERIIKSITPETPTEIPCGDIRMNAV

T1 sequence (P23977 whole entry): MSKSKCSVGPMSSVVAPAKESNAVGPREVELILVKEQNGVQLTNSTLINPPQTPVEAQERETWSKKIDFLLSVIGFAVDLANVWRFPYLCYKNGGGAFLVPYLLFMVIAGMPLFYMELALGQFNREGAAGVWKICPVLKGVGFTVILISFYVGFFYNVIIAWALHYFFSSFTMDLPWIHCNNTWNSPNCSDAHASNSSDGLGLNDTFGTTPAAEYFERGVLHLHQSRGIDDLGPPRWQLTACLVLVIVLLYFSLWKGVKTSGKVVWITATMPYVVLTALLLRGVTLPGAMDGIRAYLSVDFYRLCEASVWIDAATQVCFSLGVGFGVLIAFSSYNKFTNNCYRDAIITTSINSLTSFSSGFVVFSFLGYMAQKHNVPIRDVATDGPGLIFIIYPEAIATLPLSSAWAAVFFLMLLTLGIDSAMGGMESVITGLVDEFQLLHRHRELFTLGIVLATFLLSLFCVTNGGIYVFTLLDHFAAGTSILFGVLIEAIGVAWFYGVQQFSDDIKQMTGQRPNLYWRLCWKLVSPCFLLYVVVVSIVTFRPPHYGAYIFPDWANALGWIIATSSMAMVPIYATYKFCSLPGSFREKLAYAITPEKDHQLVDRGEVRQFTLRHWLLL
T2 sequence (Q9WTR4 1-597): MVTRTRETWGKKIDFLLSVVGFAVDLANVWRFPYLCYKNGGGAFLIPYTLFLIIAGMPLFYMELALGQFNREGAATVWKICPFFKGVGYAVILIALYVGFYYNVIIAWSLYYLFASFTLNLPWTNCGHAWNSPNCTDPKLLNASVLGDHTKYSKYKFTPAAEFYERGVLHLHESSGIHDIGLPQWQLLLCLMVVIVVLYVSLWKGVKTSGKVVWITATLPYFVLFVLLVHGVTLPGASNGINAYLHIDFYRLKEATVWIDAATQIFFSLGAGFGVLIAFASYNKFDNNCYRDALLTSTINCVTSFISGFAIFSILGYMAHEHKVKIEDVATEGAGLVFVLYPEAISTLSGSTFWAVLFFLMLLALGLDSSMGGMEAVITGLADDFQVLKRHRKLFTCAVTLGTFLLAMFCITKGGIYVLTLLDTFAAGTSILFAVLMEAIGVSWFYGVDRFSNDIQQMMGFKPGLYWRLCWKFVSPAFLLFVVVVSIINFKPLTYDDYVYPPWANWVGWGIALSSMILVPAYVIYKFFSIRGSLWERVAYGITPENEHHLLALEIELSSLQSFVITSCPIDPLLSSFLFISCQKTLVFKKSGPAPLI

Compound	melting point	IC50 [1]	IC50 [2]	IC50 [3]	other results
Clc1ccc(O[C@@H]2C[C@H]3C=C[C@@H](C2)N3)cc1Br (as salt: hydrochloric acid salt) [2nd compound of method A, exo-3-(3-Bromo-4-chloro-phenoxy)-8-aza-bicyclo[3.2.1]oct-6-ene hydrochloric acid salt]	240 to 243 °C				
Clc1ccc(O[C@@H]2C[C@H]3C=C[C@@H](C2)N3)cc1Cl [1st compound of method A, exo-3-(3,4-Dichloro-phenoxy)-8-aza-bicyclo[3.2.1]oct-6-ene hydrochloric acid salt]		220 nM	27 nM	2.5 nM	
Clc1ccc(O[C@@H]2C[C@H]3C=C[C@@H](C2)N3)cc1Br [2nd compound of method A, exo-3-(3-Bromo-4-chloro-phenoxy)-8-aza-bicyclo[3.2.1]oct-6-ene hydrochloric acid salt]		170 nM	110 nM	21 nM	
COc1ccc2cc(O[C@@H]3C[C@H]4C=C[C@@H](C3)N4C)ccc2c1 [3rd compound of method B, exo-3-(6-Methoxy-naphthalen-2-yloxy)-8-methyl-8-aza-bicyclo[3.2.1]oct-6-ene free base]	240 °C (dec.)				IC50 ([1]; 3H-DA, synaptosomes, read-out: DA-uptake IC50): 110 nM; IC50 ([2]; 3H-NA, synaptosomes, read-out: NA-uptake IC50): 170 nM; IC50 ([3]; 3H-5-HT, synaptosomes, read-out: 5-HT-uptake IC50): 480 nM
Clc1ccc(O[C@@H]2C[C@H]3C=C[C@@H](C2)N3)cc1Cl (as salt: hydrochloric acid salt) [1st compound of method A, exo-3-(3,4-Dichloro-phenoxy)-8-aza-bicyclo[3.2.1]oct-6-ene hydrochloric acid salt]	200 °C (dec.)				
